The source of these data is patent publication US11400035B2, “Preservative mixture” (Symrise AG, priority 2016, dated 2022).

For data set [1] the following is noted: experimentally determined values from literature; cited from earlier work.
Data set [2] is described as follows: General solubility of 4-isopropyl-3-methyl-phenol in different hydrophilic solvents, storage at 5° C. In kind it is physicochemical. Particulars: stored at 5° C. How it is done: After preparation, the samples were stored at 5° C. for […]. […] The evaluation of these limits was important for further determination of quantitative solubility improvement. The results are compiled in Table A and 13; the symbols have the following meanings: (++++) fully dissolved; (++) dissolved, but moderate recrystallisation after 48 h at 5° C.; (+) dissolved, but strong recrystallisation after 48 h at 5° C.; (#) not dissolved.

The nature of data set [3]: Recrystallization in shampoo, 2 days at 5° C., microscopy. In kind it is physicochemical. Conditions: polarized light, 60 fold, 0.1% 4-isopropyl-3-methyl-phenol. How it is done: To investigate the influence on recrystallization in a finished formulation the pre-solutions BC, BC2, BC3 and BC5 (Table 3) in comparison to neat 4-isopropyl-3-methyl phenol were incorporated into a shampoo. (Table 5, trials 1-5) The samples were stored for 2 days at 5° C. and then examined by microscopy.
Production method shampoo: Blend Phase A by stirring slowly with a vane stirrer, stop the process when foaming starts. Swell Ucare Poylmer JR-400 in water by stirring and warming up to 50° C. (The dispersion becomes clear and slightly viscous, when swelling process is completed) Add Phases B, C and D to A one after the other by stirring with a vane stirrer.
Incorporation of 4-isopropyl-3-methyl-phenol (neat) into the finished shampoo: Heat up the shampoo to 70° C., add 4-isopropyl-3-methyl-phenol and stir for 15 min.
Incorporation of solutions BC, BC2, B3 and BC5: Blend 0,45% (corresponds to 0,1% neat 4-isopropyl-3-methyl-phenol) of the different mixtures with the shampoo formula at 22° C. by […]
Microscopic images (Olympus IX 70, polarized light, 60 fold) of shampoo formulae 1-5 after 2 days storage at 5° C. are provided in FIGS. 4A to 4E.

For the compound `OCCOc1ccccc1` [Phenoxyethanol], in data set [1], the “LOG Po/w (exp.)” value is 1.16.
With `O=C1OCC(CO)O1` (stereo not shown) [Glycerin Carbonate], the “Solubility of 4-isopropyl-3-methyl-phenol in different hydrophilic solvents” value (“Solubility … in different hydrophilic solvents” for short) in data set [2] (Concentration 5 % b.w.) was “++”.
In the case of `CCOC(C)=O` [Ethyl acetate], the “LOG Po/w (exp.)” value in data set [1] was 0.73.
On to `CC1COC(=O)O1` (stereo not shown) [Propylene Carbonate], for which the “Solubility … in different hydrophilic solvents” value in data set [2] (Concentration 18 % b.w.) is “++”; in data set [2] (Concentration 29 % b.w.), “+”.
On to `OCc1ccccc1` [Benzylalkohol], for which the “Solubility … in different hydrophilic solvents” value is “++” in data set [2] (Concentration 15 % b.w.); “+” in data set [2] (Concentration 22 % b.w.); “+” in data set [2] (Concentration 25 % b.w.); “+” in data set [2] (Concentration 30 % b.w.); “+” in data set [2] (Concentration 34 % b.w.); “+” in data set [2] (Concentration 36 % b.w.). Besides, the “Solubility … in different hydrophilic solvents” value in data set [2] (Concentration 40 % b.w.) and in data set [2] (Concentration 46 % b.w.) was “+” each time.
With `CC(=O)OCCC(C)C` [Isoamyl acetate], the “LOG Po/w (exp.)” value in data set [1] is recorded as 2.25.
Consider `OCCO` [Ethylene glycol], for which the “LOG Po/w (exp.)” value in data set [1] is given as −1.36.
Regarding `COC(=O)c1ccccc1O` [Methyl salicylate], the “LOG Po/w (exp.)” value in data set [1] was 2.55.
As to `CC(=O)OC1CC(C)CCC1C(C)C` (stereo not shown) [Menthyl acetate], the “LOG Po/w (exp.)” value in data set [1] is 4.00.
Take `Cc1ccc(C(C)C)cc1O` [Carvacrol]: in data set [1], the “LOG Po/w (exp.)” value is 3.49.
Consider `CCCCCCCCCCCC(=O)OCC` [Ethyl Laurate], for which the “LOG Po/w (exp.)” value in data set [1] was 5.71.
For the compound `O=C(OCCc1ccccc1)c1ccccc1` [Phenethyl Benzoate], in data set [1], the “LOG Po/w (exp.)” value was 4.01.
As to `CCOCCOCCO` [Ethoxydiglycol], the “LOG Po/w (exp.)” value in data set [1] was −0.54.
For the compound `CC(C)[C@@H]1CC[C@@H](C)CC1=O` [Menthone], in data set [1], the “LOG Po/w (exp.)” value is on record as 3.05.
Turning to `Cc1cc(O)ccc1C(C)C` [4-isopropyl-3-methyl-phenol], in data set [3], the Recrystallization in shampoo entry was “recrystallized”.
Turning to `CCCCC(O)CO` (stereo not shown) [1,2-Hexanediol], the “LOG Po/w (exp.)” value in data set [1] is 0.69.
Turning to `C=C(C)C1CC=C(C)C(=O)C1` (stereo not shown) [Carvone], in data set [1], the “LOG Po/w (exp.)” value is on record as 2.71.
On to `C=C(C)[C@H]1CC=C(C)CC1` [Limonene], for which the “LOG Po/w (exp.)” value in data set [1] is on record as 4.38.
Take `CC(O)CO` (stereo not shown) [Propylene Glycol]: the results for the “Solubility … in different hydrophilic solvents” value in data set [2] (Concentration 22 % b.w.) and in data set [2] (Concentration 25 % b.w.) were “++” and “+”, respectively.
